This note sets out measurements from ChEMBL document CHEMBL3392922, “MMV box screening in the Dd2 P. falciparum strain”.

This experiment has as its system Plasmodium falciparum. Kind of experiment: MMV: IC50 determined against P. falciparum Dd2-luc strain using a Malaria Sybr Green I Fluorescence assay. Starting conditions were 1% trophozoite synchronised parasites at 2% haematocrit. Fluorescence detection completed after 48hr incubation at 37 degrees C under 1% O2, 3% CO2 and balance N2. Format: functional, organism-based. The note with it: Dd2, 48 h.
Consider `COc1ccc(-n2ccnc2SCC(=O)Nc2cc(C)ccc2C)c(OC)c1`, for which the IC50 stood at 351 nM. This lies in the sub-micromolar range. The result for `COCCNCC(O)Cn1c2ccc(Cl)cc2c2cc(Cl)ccc21` (centres undefined) reads 652 nM. The result for `CCOc1ccccc1NC(=O)CN1CCN(C(=O)c2ccco2)CC1` reads 2900 nM. As to `CCOc1c(Br)cc(C2C(C(=O)OC)=CN(C)C=C2C(=O)OC)cc1OC`, the IC50 turned out to be 789 nM. Compared with the last compound, the IC50 is about 3.7-fold lower. The result for `Cc1cc(Nc2ccc(OCc3ccccc3)cc2)nc2cc(O)ccc12` reads 296 nM. The result for `CCN(CC)CCNc1ccnc2cc(Cl)ccc12` reads 44 nM. The result for `Cc1ccnc(NC(c2cccc(OCc3ccccc3)c2)c2ccc3cccnc3c2O)c1` (centres undefined) reads 963 nM; that for `CN(C)CCNc1cc(-c2ccccc2)nc2ccccc12`, 3650 nM. On to `COc1cccc(C(=O)Nc2ccc(-c3nc4ccccc4[nH]3)cc2)c1`, for which the midpoint of inhibition, the IC50, lay at 832 nM. Against the preceding compound, the IC50 is about 4.4-fold lower.

As for `COc1ccccc1CNC(=O)CCn1c(=O)[nH]c2ccsc2c1=O`, it took 977 nM to reach half-maximal inhibition (IC50). Turning to `COc1ccc(CN2CCN(Cc3ccccc3)CC2)c(O)c1`, the IC50 is 1140 nM.

The compound `Cc1ccc(Nc2nc(NCCO)c3ccccc3n2)cc1C` yielded an IC50 of 987 nM. This IC50 and that of the compound before are within 1.5-fold of each other.

`CCOc1c(Cl)cc(CNCC(O)c2ccccc2)cc1OC` (centres undefined) gave an IC50 of 1300 nM. The result for `Clc1ccc2c(N3CCCC3)ccnc2c1` reads 1290 nM; that for `CC(C)(C)CC(C)(C)NCC(O)COc1ccc(Cl)cc1Cl` (centres undefined), 494 nM. Consider `OCCNc1nc(Nc2ccc(Cl)c(Cl)c2)nc2ccccc12`, for which the IC50 turned out to be 419 nM. This IC50 and that of the compound before are within 1.5-fold of each other.

Consider `CC(=O)Nc1nnc(SCc2c(C)cc(C(C)(C)C)cc2C)s1`, for which 794 nM corresponded to half-maximal inhibition (IC50).

As for `CCC(O)c1ccc(Br)cc1NC(=O)c1cccc(Cl)c1` (centres undefined), 701 nM corresponded to half-maximal inhibition (IC50). The result for `CN1CCN(c2nc(Nc3ccc(O)cc3)nc3ccccc23)CC1` reads 1410 nM; that for `CC(C)CCNCC(O)Cn1c2ccccc2c2ccccc21` (centres undefined), 907 nM; that for `COc1cccc(-c2nn(C)c3sc(C(=O)NCCN4CCN(c5ccccc5F)CC4)cc23)c1`, 1910 nM. The result for `COc1ccc(-c2c(C)nn3c(N)c(C#N)cnc23)cc1OC` reads 305 nM; that for `Cc1cc(N(C)C)nc(Nc2ccc(NC(=O)Nc3ccccc3)cc2)n1`, 973 nM; that for `CCOC(=O)c1cnc2ccc(CC)cc2c1O`, 647 nM. The result for `CN(C)CCCNCc1ccc(-c2ccc(F)c(Cl)c2)o1` reads 1160 nM.

`CCOc1ccc2nc(C)cc(Nc3ccc(N(C)C)cc3)c2c1` registered a 50% inhibitory concentration (IC50) of 998 nM. In turn, `Cc1sc2ncnc(Sc3nc4ccccc4[nH]3)c2c1C` displayed a concentration for half-maximal inhibition (IC50) of 844 nM.

`CN1c2ccccc2N(C)C1c1ccc2c(c1)OCO2` registered a 50% inhibitory concentration (IC50) of 1150 nM. The result for `Oc1ccccc1CN1CCN(C(c2ccccc2)c2ccccc2)CC1` reads 959 nM; that for `CCOc1cccc(C(=O)Nc2ccc(-c3nc4ccccc4[nH]3)cc2)c1`, 1210 nM. The result for `CN1CCN(c2ccc(Nc3c4ccccc4nc4ccccc34)cc2)CC1` reads 1600 nM; that for `O=c1c2c([nH]c3ccccc13)CCCC2`, 876 nM.

`CC(O)(c1ccc(Cl)cc1)C(CN1CCCCC1)c1ccccc1` (centres undefined) had a 50% inhibitory concentration (IC50) of 314 nM. Turning to `COc1ccc(C(O)(CCC(C)C)C(CN2CCOCC2)c2ccc(Cl)cc2)cc1` (centres undefined), the 50% inhibitory concentration (IC50) stood at 3550 nM. On to `CCCCN(CCCC)S(=O)(=O)c1ccc(NC(=O)c2ccco2)cc1`, for which the IC50 turned out to be 1160 nM. On to `O=C(NC1CCN(Cc2ccccc2)CC1)c1cc(C(=O)NC2CCN(Cc3ccccc3)CC2)cc(C(=O)NC2CCN(Cc3ccccc3)CC2)c1`, for which the IC50 is 264 nM. Compared with the last compound, the IC50 is about 4.4-fold lower. For the compound `Clc1ccc2[nH]c3c(NCCCN4CCOCC4)ncnc3c2c1`, the 50% inhibitory concentration (IC50) turned out to be 617 nM. The result for `CCOC(=O)c1ccc2nc(-c3ccccc3)cc(O)c2c1` reads 720 nM.

`Cc1cc(C)c2nc(N3CCC(C(=O)NCCCN4CCC(N5CCCCC5)CC4)CC3)sc2c1`: the IC50 came out at 1280 nM. Compared with the last compound, the IC50 is about 1.8-fold higher. `C=C(C)CCC(C)N1CCC(N2CCC(C(=O)NCCc3ccccc3)CC2)CC1` (centres undefined): the IC50 was 1460 nM. The result for `COc1ccccc1CNC(=O)CCn1c(=O)[nH]c2ccccc2c1=O` reads 518 nM; that for `COc1ccc2nc(C)cc(Nc3ccccc3O)c2c1`, 1100 nM.

`O=C(NCC(c1ccsc1)N1CCCCCC1)c1ccc(C(F)(F)F)cc1` (centres undefined): the 50% inhibitory concentration (IC50) worked out at 467 nM. The result for `Oc1ccc(Br)cc1CN1CCN(Cc2ccc(Cl)cc2)CC1` reads 1520 nM.
